Source: the supplement of paper PMC4862054

What was measured:
Settings in all cases: incubation time: 72 h
[1] = tested on: BT-474; assay: normalised response (% of control), CellTox Green; higher = less cell death (100 = DMSO, 0 = benzethonium chloride kill control)
Summary of the method: (§1)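 A 20 µl suspension of breast cancer cells was seeded into each well of 384-well plates containing compound at 5 concentrations in 10-fold steps over a compound-specific 10,000-fold range. After 72 h incubation, CellTox Green fluorescence (485/520 nm) was read first, and CellTiter-Glo luminescence was read after 10 min at room temperature. Each plate was normalised against 0.1 % DMSO (100) and a positive kill control (0), and each value is the normalised signal at one concentration.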

[2] = tested on: BT-549; assay: as above
Summary of the method: as §1

[3] = tested on: CAL-120; assay: as above
Summary of the method: as §1

[4] = tested on: CAL-148; assay: as above
Summary of the method: as §1

[5] = tested on: CAL-51; assay: as above
Summary of the method: as §1

[6] = tested on: CAL-85-1; assay: as above
Summary of the method: as §1

[7] = tested on: DU-4475; assay: as above
Summary of the method: as §1

[8] = tested on: HCC1143; assay: as above
Summary of the method: as §1

[9] = tested on: HCC1599; assay: as above
Summary of the method: as §1

[10] = tested on: HCC1937; assay: as above
Summary of the method: as §1

[11] = tested on: HDQ-P1; assay: as above
Summary of the method: as §1

[12] = tested on: Hs578T; assay: as above
Summary of the method: as §1

[13] = tested on: MCF-10A; assay: as above
Summary of the method: as §1

[14] = tested on: MDA-MB-231; assay: as above
Summary of the method: as §1

[15] = tested on: MDA-MB-436; assay: as above
Summary of the method: as §1

[16] = tested on: MDA-MB-453; assay: as above
Summary of the method: as §1

[17] = tested on: MDA-MB-468; assay: as above
Summary of the method: as §1

[18] = tested on: MFM-223; assay: as above
Summary of the method: as §1

[19] = tested on: BT-474; assay: normalised response (% of control), CellTiter-Glo; higher = more viable cells (100 = DMSO, 0 = benzethonium chloride kill control)
Summary of the method: as §1

[20] = tested on: BT-549; assay: as above
Summary of the method: as §1

[21] = tested on: CAL-120; assay: as above
Summary of the method: as §1

[22] = tested on: CAL-148; assay: as above
Summary of the method: as §1

[23] = tested on: CAL-51; assay: as above
Summary of the method: as §1

[24] = tested on: CAL-85-1; assay: as above
Summary of the method: as §1

[25] = tested on: DU-4475; assay: as above
Summary of the method: as §1

[26] = tested on: HCC1143; assay: as above
Summary of the method: as §1

[27] = tested on: HCC1599; assay: as above
Summary of the method: as §1

[28] = tested on: HCC1937; assay: as above
Summary of the method: as §1

[29] = tested on: HDQ-P1; assay: as above
Summary of the method: as §1

[30] = tested on: Hs578T; assay: as above
Summary of the method: as §1

[31] = tested on: MCF-10A; assay: as above
Summary of the method: as §1

[32] = tested on: MDA-MB-231; assay: as above
Summary of the method: as §1

[33] = tested on: MDA-MB-436; assay: as above
Summary of the method: as §1

[34] = tested on: MDA-MB-453; assay: as above
Summary of the method: as §1

[35] = tested on: MDA-MB-468; assay: as above
Summary of the method: as §1

[36] = tested on: MFM-223; assay: as above
Summary of the method: as §1

[37] = tested on: SK-BR-3; assay: as above
Summary of the method: as §1

SMILES	normalised response [1]	normalised response [2]	normalised response [3]	normalised response [4]	normalised response [5]	normalised response [6]	normalised response [7]	normalised response [8]	normalised response [9]	normalised response [10]	normalised response [11]	normalised response [12]	normalised response [13]	normalised response [14]	normalised response [15]	normalised response [16]	normalised response [17]	normalised response [18]	normalised response [19]	normalised response [20]	normalised response [21]	normalised response [22]	normalised response [23]	normalised response [24]	normalised response [25]	normalised response [26]	normalised response [27]	normalised response [28]	normalised response [29]	normalised response [30]	normalised response [31]	normalised response [32]	normalised response [33]	normalised response [34]	normalised response [35]	normalised response [36]	normalised response [37]
CCc1c2c(nc3ccc(OC(=O)N4CCC(N5CCCCC5)CC4)cc13)-c1cc3c(c(=O)n1C2)COC(=O)[C@]3(O)CC [Irinotecan] (100 nM)	92.4%	93.4%	98.7%	104%	106%	94.9%	101%	86%	99.7%	98%	117%	77.4%	109%	89.2%	93.4%	102%	99.2%	73.8%	99.2%	95.3%	92.5%	96.6%	109%	103%	98.8%	96%	112%	94.8%	96.5%	98%	95.4%	96.2%	93.8%	102%	111%	106%	100%
CNC(=O)c1ccc(N2C(=S)N(c3ccc(C#N)c(C(F)(F)F)c3)C(=O)C23CCC3)cc1F [RD162] (100 nM)	104%	106%	104%	87%	105%	101%	103%	84.3%	102%	107%	96.8%	88%	110%	113%	83.4%	107%	87.9%	103%	94.2%	97.8%	103%	101%	97.3%	96.4%	102%	101%	111%	91.3%	99.7%	102%	116%	99.7%	101%	108%	108%	103%	103%
CNC(=O)c1ccc(N2C(=S)N(c3ccc(C#N)c(C(F)(F)F)c3)C(=O)C2(C)C)cc1F [Enzalutamide] (100 nM)	103%	103%	106%	100%	74.8%	117%	107%	111%	103%	94.6%	71.9%	95.1%	86.1%	113%	96.9%	106%	126%	101%	99.7%	97.1%	106%	106%	70.4%	108%	99.1%	101%	113%	91.1%	97.4%	102%	108%	95.9%	101%	105%	102%	104%	101%
Cc1[nH]c2ccccc2c1CCNCc1ccc(/C=C/C(=O)NO)cc1 [Panobinostat] (10 nM)	75.8%	106%	99.7%	83.1%	99.8%	89.9%	95.4%	76.1%	96.4%	99.2%	102%	106%	110%	86.3%	82.3%	81.9%	70.6%	94.9%	94.3%	99.7%	85.3%	83.1%	73.7%	77.1%	84%	88.5%	94.8%	81.5%	93.3%	88.1%	99.6%	88.4%	83.5%	50.6%	84.6%	90.8%	65.8%
C=C1C[C@@H]2[C@H](CC[C@]3(C)C(=O)CC[C@@H]23)[C@@]2(C)C=CC(=O)C=C12 [Exemestane] (100 nM)	104%	92.8%	102%	89%	116%	101%	109%	99.6%	112%	56.9%	94.5%	86.8%	109%	117%	109%	108%	50%	107%	98.6%	101%	106%	109%	111%	103%	106%	104%	104%	94.8%	102%	104%	110%	107%	103%	106%	101%	106%	106%
COCC1(CO)C(=O)C2CCN1CC2 (configuration not stated) [Prima-1 Met] (100 nM)	101%	102%	102%	106%	108%	95.6%	101%	83.2%	114%	122%	109%	104%	82%	104%	86.5%	102%	145%	108%	96.8%	106%	99.3%	112%	99.6%	99.7%	96.1%	103%	119%	102%	103%	101%	107%	97.5%	101%	104%	95.8%	107%	98.7%
